{
  "source": "ChEMBL document CHEMBL1142959",
  "about": "“Semisynthetic approaches to laspartomycin analogues” (2007)",
  "format_in_all_cases": "functional",
  "key": {"Staphylococcus aureus [1]": {"system": "Staphylococcus aureus", "test": "Antimicrobial activity against methicillin-resistant Staphylococcus aureus ATCC 43300 by broth microdilution method"}, "Enterococcus faecium": {"system": "Enterococcus faecium", "test": "Antimicrobial activity against vancomycin/multidrug-resistant Enterococcus faecium ATCC 51559 by broth microdilution method"}, "Staphylococcus aureus [2]": {"system": "Staphylococcus aureus", "test": "Antimicrobial activity against methicillin-sensitive Staphylococcus aureus Smith ATCC 19636 by broth microdilution method"}, "Staphylococcus aureus [3]": {"system": "Staphylococcus aureus", "test": "Antimicrobial activity against methicillin-sensitive Staphylococcus aureus Smith ATCC 19636 by tube dilution method", "settings": "Staphylococcus aureus, Smith; read-out: MIC"}, "Enterococcus faecalis": {"system": "Enterococcus faecalis", "test": "Antimicrobial activity against vancomycin-sensitive Enterococcus faecalis ATCC 29212 by broth microdilution method"}, "[4]": {"system": "Staphylococcus epidermidis", "test": "Antimicrobial activity against methicillin-resistant Staphylococcus epidermidis ATCC 51625 by broth microdilution method"}, "Staphylococcus aureus [5]": {"system": "Staphylococcus aureus", "test": "Antimicrobial activity against vancomycin-intermediate Staphylococcus aureus CDC HIP 5836 by broth microdilution method"}},
  "data": [
    {"smiles": "CCCCCCCCCCCCCCCCS(=O)(=O)N[C@@H](Cc1ccccc1)C(=O)N[C@@H](CC(=O)O)C(=O)N[C@H]1CNC(=O)[C@@H]2CCCN2C(=O)[C@H]([C@H](C)CC)NC(=O)[C@H]([C@@H](C)O)NC(=O)CNC(=O)[C@H](CC(=O)O)NC(=O)CNC(=O)[C@H](CC(=O)O)NC(=O)CNC(=O)[C@@H]2CCCCN2C1=O", "values": [
      {"measurement": "MIC", "setting": "Staphylococcus aureus [1]", "result": 8, "unit": "µg/mL"},
      {"measurement": "MIC", "setting": "Enterococcus faecium", "result": 4, "unit": "µg/mL"},
      {"measurement": "MIC", "setting": "Staphylococcus aureus [2]", "result": "> 64", "unit": "µg/mL"},
      {"measurement": "MIC", "setting": "Staphylococcus aureus [3]", "result": 4, "unit": "µg/mL"},
      {"measurement": "MIC", "setting": "Enterococcus faecalis", "result": 2, "unit": "µg/mL"},
      {"measurement": "MIC", "setting": "[4]", "result": 4, "unit": "µg/mL"},
      {"measurement": "MIC", "setting": "Staphylococcus aureus [5]", "result": "> 64", "unit": "µg/mL"}
    ]}
  ]
}
